Measurements from US7741350B1 (Cara Therapeutics, Inc., priority 2009, dated 2010).
Where two headings read alike, the source gives them in different places.

Columns and labels:
[1] = target: human CB2 receptor (hCB2) (Homo sapiens, UniProt P34972); experiment: cAMP assay at human CB2 receptor; format: cell-based; settings: hCB2R, maximum measurable range 30 μM
Method in brief: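 Values expressed as percent of the window between forskolin-stimulated wells and forskolin plus 1 μM CP55,940 wells.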

[2] = target: human CB1 receptor (hCB1) (Homo sapiens, UniProt P21554); experiment: cAMP assay at human CB1 receptor; format: cell-based; settings: hCB1R; maximum measurable range 30 μM; read-out: EC50 (Potency at Human CB1 determined by cAMP Assay)
Method in brief: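 Changes in intracellular cAMP measured by TR-FRET (665/615 nm) in forskolin-stimulated cells; cAMP read from a concurrent standard curve. Values normalised between forskolin and forskolin plus 1 μM CP55,940 wells. EC50 and intrinsic activity relative to CP55,940 from four-parameter nonlinear regression.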

Male ICR mice = experiment: Inhibition of acetic acid-induced writhing in mice; format: in vivo, mouse; settings: dose of 10 mg/kg, subcutaneous 30 min before acetic acid
Source text: 12: 525-562; Ramabadran and Bansinath (1986) Pharm. Res. 3: 263-270]. Intraperitoneal administration of dilute acetic acid solution causes a writhing behavior in mice. A writhe is defined as a contraction of the abdominal muscles accompanied by an extension of the forelimbs and elongation of the body. The number of writhes observed in the presence and absence of test compounds is counted to determine the analgesic activity of the compounds.
Male ICR mice, 20-40 grams in weight, were weighed and placed in individual observation chambers (usually a 4 L beaker) with a fine layer of rodent bedding at the bottom. To determine the activity and potency of test compounds, different doses of the compound solution or vehicle were injected subcutaneously in the back of the neck 30 minutes prior to administration of acetic acid solution. After administration of the compound or vehicle control, mice were returned to their individual observation chambers awaiting the intraperitoneal administration of acetic acid solution.
Thirty minutes later, 10 ml/kg of a 0.6% (v/v) acetic acid solution was then injected into the right lower quadrant of the abdomen. Immediately after the injection, the mouse was returned to its observation chamber and the recording of the number of writhes is begun immediately. The number of writhes was counted over a 15-min period starting from the time of acetic acid injection. Raw data were analyzed using a one-way ANOVA followed by Dunnett's post-tests.
For dose-response analysis, raw data were converted to % maximum possible effect (% MPE) using the formula: % MPE=((Wc−Wv)/(0−Wv))*100, where Wc is the number of writhes in compound-treated mice and Wv is the mean number of writhes in vehicle-treated mice. The dose which elicited 50% attenuation of hypersensitivity (ED50) can be determined using linear regression analysis. (Tallarida & Murray, 1987).

male Sprague-Dawley rats = experiment: Anti-hyperalgesia in the Complete Freund's Adjuvant (CFA) model of inflammatory pain; format: in vivo; settings: PO dose 3 mg/kg; 1 hr after dosing; thermal hyperalgesia; rat; read-out: % MPE (1 hr), paw withdrawal latency after CFA injection
Procedure: The anti-hyperalgesic effects of test compounds in the Complete Freund's Adjuvant (CFA) model of inflammatory pain were determined essentially as described in U.S. Pat. No. 7,517,874 using male Sprague-Dawley rats (Hsd: Sprague-Dawley®SD®, Harlan, Indianapolis, Ind.) weighing 200-300 grams.
Test compounds were prepared in a Cremaphor vehicle mixture of 1:1:18 CremophorEL:ethanol:water. Cremophor was obtained from Sigma Chemical (St. Louis, Mo.). The vehicle mixture or vehicle mixture plus test compound were each administered orally.
Assessment of thermal hyperalgesia: Baseline and post-treatment paw withdrawal latencies to a noxious thermal stimulus were measured using a plantar test apparatus (Ugo Basile; obtained from Stoelting, Wood Dale, Ill.). This apparatus generates an infrared heat source that is linearly increasing in intensity. To avoid tissue damage, the power to the heat source was cut off after 20 seconds.
Paw withdrawal latency is defined as the time required for the rat to flick its paw away from the thermal stimulus. Ibuprofen (100 mg/kg, p.o.) was used as the positive control. Paw withdrawal latencies (in seconds) were measured before (naïve paw latency, L1) and 24 hr following (CFA-inflamed paw latency, L2) a single intraplantar injection of 0.1 mL CFA (Sigma-Aldrich, cat F5881, Mycobacterium tuberculosis 1 mg/ml).
Test compounds were administered orally 23 hours following CFA injection; i.e., 1 hour prior to thermal assessment (compound treated CFA-inflamed paw latency, L3). The mean paw withdrawal latency and standard error of the mean (SEM) was determined for the injured paws for each treatment group.
Data were expressed as percent maximum […] effect (% MPE) defined as the percentage of restoration of latency of test compound-treated CFA inflamed paw as compared to the naïve paw latency.

Rat L5/L6 SNL model = experiment: Spinal nerve ligation (SNL) model of chronic neuropathic pain; format: in vivo; settings: two-way repeated measurement ANOVA, Bonferroni post-tests
Procedure: The SNL model (Kim and Chung, 1992, Pain 50 (3):355-63) was used to induce chronic neuropathic pain in rats. Rats were anesthetized with isoflurane, the left L5 transverse process was removed, and the L5 and L6 spinal nerves were tightly ligated with 6-0 silk suture. The wound was then closed with internal sutures and external staples. Following at least seven days post SNL, baseline, post-injury and post-treatment values for non-noxious mechanical sensitivity were evaluated using eight Semmes-Weinstein filaments (Stoelting, Wood Dale, Ill., USA) with varying stiffness (0.4, 0.7, 1.2, 2.0, 3.6, 5.5, 8.5, and 15 g) according to the up-down method (Chaplan et al., 1994, J. Neurosci. Meth., 53 (1):55-63). Animals were placed on a perforated metallic platform and allowed to acclimate to their surroundings for a minimum of thirty minutes before testing.
Rat L5/L6 SNL model (n=6/group; mean±sem). Sensitivity to non-noxious mechanical stimuli was tested before and at various time points following oral administration of compound (36). The mean and standard error of the mean (SEM) were determined for the injured paw in each treatment group. Since this stimulus is normally not considered painful, significant injury-induced increases in responsiveness in this test are interpreted as a measure of mechanical allodynia.

[3] = EC50 (Potency at Human CB2 determined by cAMP Assay)
[4] = read-out: EC50 (Potency at Human CB2 determined by cAMP Assay)

Chain of human CB2 receptor (hCB2) (P34972 whole entry): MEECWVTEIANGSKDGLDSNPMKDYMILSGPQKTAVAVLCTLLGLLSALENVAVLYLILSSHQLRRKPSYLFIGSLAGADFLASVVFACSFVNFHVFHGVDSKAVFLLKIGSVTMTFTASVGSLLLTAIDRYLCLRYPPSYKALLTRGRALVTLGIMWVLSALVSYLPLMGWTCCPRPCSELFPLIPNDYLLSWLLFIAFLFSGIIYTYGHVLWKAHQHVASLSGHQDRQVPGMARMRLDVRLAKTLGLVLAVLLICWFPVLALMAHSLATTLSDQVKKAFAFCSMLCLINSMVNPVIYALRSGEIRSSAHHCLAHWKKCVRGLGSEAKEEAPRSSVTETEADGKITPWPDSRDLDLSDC
Chain of human CB1 receptor (hCB1) (P21554 whole entry): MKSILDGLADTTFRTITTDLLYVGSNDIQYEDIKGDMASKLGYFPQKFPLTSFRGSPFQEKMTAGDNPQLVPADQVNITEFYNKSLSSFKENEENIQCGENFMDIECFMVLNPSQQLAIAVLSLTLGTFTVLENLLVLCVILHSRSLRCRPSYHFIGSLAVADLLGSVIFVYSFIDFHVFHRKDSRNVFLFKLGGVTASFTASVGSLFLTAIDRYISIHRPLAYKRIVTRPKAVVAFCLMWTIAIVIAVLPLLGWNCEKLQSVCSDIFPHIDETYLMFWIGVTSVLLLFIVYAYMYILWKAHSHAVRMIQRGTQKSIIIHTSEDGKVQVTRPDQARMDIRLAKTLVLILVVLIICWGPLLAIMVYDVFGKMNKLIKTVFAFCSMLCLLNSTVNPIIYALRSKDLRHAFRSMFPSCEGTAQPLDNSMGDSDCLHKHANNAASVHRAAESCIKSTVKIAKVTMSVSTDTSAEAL

Row | SMILES | EC50 [1, 3] | EC50 [2] | reversal of the mechanical hyperalgesia induced by the acetic acid treatment (Male ICR mice) | inhibition in vivo at 3 mg/kg (male Sprague-Dawley rats) | Sensitivity to non-noxious mechanical stimuli, significance vs. vehicle-controls (Rat L5/L6 SNL model; 3 mg/kg oral) | Sensitivity to non-noxious mechanical stimuli, significance vs. vehicle-controls (Rat L5/L6 SNL model; 10 mg/kg oral) | Sensitivity to non-noxious mechanical stimuli, significance vs. vehicle-controls (Rat L5/L6 SNL model; 30 mg/kg oral) | EC50 [1, 4]
1 | CNC(=O)[C@@H](NC(=O)n1nc(-c2ccc(F)c(F)c2)c2c1CCOC2)C(C)(C)C [Compound 28, (S)-3-(3,4-difluorophenyl)-N-(3,3-dimethyl-1-(methyl-amino)-1-oxobutan-2-yl)-6,7-dihydropyrano[4,3-c]pyrazole-1(4H)-carboxamide] | < 1000 nM | < 1000 nM | 100% | – | – | – | – | –
2 | CC(C)(C)[C@H](NC(=O)n1nc(-c2cc(F)c(F)cc2F)c2c1CCOC2)C(=O)NCCO [Compound 35, (S)—N-(1-(2-hydroxyethylamino)-3,3-dimethyl-1-oxobutan-2-yl)-3-(2,4,5-trifluorophenyl)-6,7-dihydropyrano[4,3-c]pyrazole-1(4H)-carboxamide] | < 1000 nM | < 1000 nM | 100% | – | – | – | – | –
3 | CC(C)(C)[C@H](NC(=O)n1nc(-c2ccc(F)c(F)c2)c2c1CCOC2)C(=O)NCCO [Compound 36, (S)—N-(1-(2-hydroxyethylamino)-3,3-dimethyl-1-oxobutan-2-yl)-3-(3,4-difluorophenyl)-6,7-dihydropyrano[4,3-c]pyrazole-1(4H)-carboxamide] | < 1000 nM | < 1000 nM | – | 44% | significant to p<0.05 vs. vehicle-controls | significant to p<0.001 vs. vehicle-controls | significant to p<0.001 vs. vehicle-controls | –
4 | CNC(=O)[C@@H](NC(=O)n1nc(-c2cc(F)c(F)cc2F)c2c1CCN(C)C2)C(C)(C)C [Compound 37, (S)—N-(3,3-dimethyl-1-(methylamino)-1-oxobutan-2-yl)-5-methyl-3-(2,4,5-trifluorophenyl)-4,5,6,7-tetrahydro-1H-pyrazolo[4,3-c]pyridine-1-carboxamide] | < 1000 nM | < 1000 nM | 100% | – | – | – | – | –
5 | CN1CCCc2c1c(-c1cc(Cl)ccc1F)nn2C(=O)N[C@H](C(=O)NCCO)C(C)(C)C [Compound 94, (S)-3-(5-chloro-2-fluorophenyl)-N-(1-(2-hydroxyethylamino)-3,3-dimethyl-1-oxobutan-2-yl)-4-methyl-4,5,6,7-tetrahydro-1H-pyrazolo[4,3-b]pyridine-1-carboxamide] | < 1000 nM | < 1000 nM | – | 27% | – | – | – | –
6 | CC(C)(C)[C@H](NC(=O)n1nc(-c2ccc(F)c(F)c2)c2c1COCC2)C(=O)NCCO [Compound 95, (S)-3-(3,4-difluorophenyl)-N-(1-(2-hydroxyethylamino)-3,3-dimethyl-1-oxobutan-2-yl)-4,5-dihydropyrano[3,4-c]pyrazole-1(7H)-carboxamide] | < 1000 nM | < 1000 nM | – | 41% | – | – | – | –
7 | CC(C)(C)[C@H](NC(=O)n1nc(-c2cc(Cl)ccc2F)c2c1COCC2)C(=O)NCCO [Compound 96, (S)-3-(5-chloro-2-fluorophenyl)-N-(1-(2-hydroxyethylamino)-3,3-dimethyl-1-oxobutan-2-yl)-4,5-dihydropyrano[3,4-c]pyrazole-1(7H)-carboxamide] | < 1000 nM | < 1000 nM | – | 52% | – | – | – | –
8 | CN1CCc2c(c(-c3ccc(F)c(F)c3)nn2C(=O)N[C@H](C(=O)NCCO)C(C)(C)C)C1 [Compound 98, (S)-3-(3,4-difluorophenyl)-N-(1-(2-hydroxyethylamino)-3,3-dimethyl-1-oxobutan-2-yl)-5-methyl-4,5,6,7-tetrahydro-1H-pyrazolo[4,3-c]pyridine-1-carboxamide] | < 1000 nM | < 1000 nM | – | 36% | – | – | – | –
9 | CC(C)(C)[C@H](NC(=O)n1nc(-c2ccc(F)c(F)c2)c2c1CCOC2)C(N)=O [Compound 99, (S)—N-(1-amino-3,3-dimethyl-1-oxobutan-2-yl)-3-(3,4-difluorophenyl)-6,7-dihydropyrano[4,3-c]pyrazole-1(4H)-carboxamide] | – | < 1000 nM | – | 68% | – | – | – | > 1000 nM
10 | CNC(=O)[C@@H](NC(=O)n1nc(-c2ccc(F)c(F)c2)c2c1CCCN2CCO)C(C)(C)C [Compound 101, (S)-3-(3,4-difluorophenyl)-N-(3,3-dimethyl-1-(methylamino)-1-oxobutan-2-yl)-4-(2-hydroxyethyl)-4,5,6,7-tetrahydro-1H-pyrazolo[4,3-b]pyridine-1-carboxamide] | – | < 1000 nM | – | 28% | – | – | – | < 1000 nM
